Here are results for six compounds from patent US20040242498A1, “CXCR3 antagonists” (priority 2003, published 2004).

Data set [1] is described as follows: Excretion of compound 101 and metabolites in urine and bile of bile duct cannulated rats. The data set is classed as in vivo, Sprague Dawley rat. The conditions noted are these: bile duct cannulated male rats. As for the experimental part:
In addition, compound 101 was administered intravenously or orally to bile duct cannulated male Sprague Dawley rats. Urine and bile samples were collected over a period of 24 hours and analyzed by liquid chromatography/mass spectrometry. Compound 101 was detected in a small amount (<1% of the administered dose) in urine and in bile. In urine, compound 103, the pyridyl-N-oxide of compound 101, was detected. Five metabolites, compounds 103, 105, 107, 109 and 111, were all detected in bile excretions; compound 111 was detected in a trace amount in bile. A proposed metabolic pathway for compound 101 is provided at FIG. 3.
Overall, N-oxidation and O-deethylation occurred to similar extents. The O-deethyl metabolite was detected mainly as a glucuronide conjugate, compound 109. […] Only trace amounts of the glucuronide of the N-oxidized O-deethyl metabolite, compound […], were detected. The detected metabolites, and the relative amounts thereof, in urine and bile agree with the metabolites detected with rat liver microsomal fractions and rat hepatocytes in vitro as discussed above.

Data set [2] concerns any cytochrome p450 isoform, including 3A4. Briefly: Inhibition or induction of cytochrome p450 isoforms by compound 101. Format: in vitro ADME, human.
Data set [3] in a line: Metabolites of compound 101 with human liver microsomal fractions. The conditions noted are these: formed from compound 101 (10 μM), microsomal protein 1 mg/mL, NADPH, 37° C., 105 min, LCMS. The data set is classed as in vitro ADME. As for the experimental part: (§1) Compound 101 was contacted with microsomal fractions from Sprague Dawley rat, dog (beagle), rhesus monkey and human liver to detect and identify resulting metabolites. In particular, Compound 101 in PBS (10 μM) was incubated in a mixture of microsomal protein (1 mg/mL), EDTA (1.0 mM) and NADPH (5 mM) at 37° C. for a total of 105 min. The reaction was stopped by the addition of acetonitrile containing 0.2% formic acid (400 μL). Samples were centrifuged and the supernatant was subjected to LCMS analysis.
(§2) Compound 103, the pyridyl-N-oxide product of compound 101, was detected following contact with the microsomal fractions from all species. Compound 105, the deethylation product of compound 101, was also detected following contact with the microsomal fractions from all species. […] With human microsomal fractions, an amount of compound 107, the deethylation and pyridyl-N-oxide product of compound 101, was also detected.
(In general: Liver microsomes are vesicles of endoplasmic reticulum, rich in cytochrome P450 enzymes.)

Data set [4] can be described thus: Metabolites of compound 101 with rhesus monkey liver microsomal fractions and hepatocytes. Format: in vitro ADME. The conditions noted are these: formed from compound 101; liver microsomal fractions (10 μM, 105 min) or cryopreserved hepatocytes. As to the method:
as §1, §2
(§3) Compound 101 was also incubated with intact dog and monkey liver cells (cryopreserved hepatocytes). Following incubation, the formation of compound 109, the glucuronide adduct of compound 105, was detected.

Data set [5] is described as follows: Metabolites of compound 101 with dog liver microsomal fractions and hepatocytes. Format: in vitro ADME, dog (beagle). The conditions noted are these: formed from compound 101; liver microsomal fractions (10 μM, 105 min) or cryopreserved hepatocytes. As for the experimental part:
as §1, §2, §3

Data set [6] is described as follows: Metabolites of compound 101 with rat liver microsomal fractions. The data set is classed as in vitro ADME, Sprague Dawley rat. The conditions noted are these: formed from compound 101 (10 μM), 105 min. As for the experimental part:
as §1, §2

Where [7] appears, read: compound 101 intravenously or orally, 24 hours collection.
Setting [8] is: after compound 101 intravenously or orally, 24 hours, LC/MS.

SMILES strings stand for the structures. “Also recorded” adds a separate entry of the source.

Consider `CCOc1ccc(-n2c([C@@H](C)N(Cc3cccnc3)C(=O)Cc3ccc(OC(F)(F)F)cc3)nc3ncccc3c2=O)cc1` [Compound 101], for which the “Amount detected in urine and in bile, of the administered dose (Rat in vivo)” value in data set [1] (setting [7]) was below 1%. In addition, the “Inhibition or induction of cytochrome p450 isoforms” value in data set [2] is “little or no inhibition or induction”.
As for `C[C@H](c1nc2ncccc2c(=O)n1-c1ccc(O)cc1)N(Cc1ccc[n+]([O-])c1)C(=O)Cc1ccc(OC(F)(F)F)cc1` [Compound 107], in data set [3], the “Metabolic Forms of Compound 101: Human” value is recorded as “detected; also recorded: minor”. Besides, in data set [1] (setting [8]), the Detection in bile result was “detected; also recorded: significant amounts”. Further, the “Metabolic Forms of Compound 101: Rat (in vivo), excreta in which detected” value (“Metabolic Forms … in which detected” for short) in data set [1] (setting [7]) is “bile”. Moreover, the “Metabolic Forms of Compound 101: Monkey” value in data set [4] was “minor”.
In the case of `CCOc1ccc(-n2c([C@@H](C)N(Cc3ccc[n+]([O-])c3)C(=O)Cc3ccc(OC(F)(F)F)cc3)nc3ncccc3c2=O)cc1` [Compound 103], the “Metabolic Forms of Compound 101: Human” value in data set [3] is “more compound 103 than compound 105; also recorded: major”. In addition, in data set [1] (setting [8]), the Detection in bile entry was “detected” and the Detection in urine entry is “detected”. Also, the “Metabolic Forms … in which detected” value in data set [1] (setting [7]) was “urine & bile”. Also, in data set [4], the “Metabolic Forms of Compound 101: Monkey” value is on record as “more compound 103 than compound 105; also recorded: major”. In data set [5], the “Metabolic Forms of Compound 101: Dog” value is given as “more compound 103 than compound 105; also recorded: major”. The “Metabolic Forms of Compound 101: Rat (in vitro)” value in data set [6] is “approximately equal amounts; also recorded: major”.
For the compound `C[C@H](c1nc2ncccc2c(=O)n1-c1ccc(OC2OC(C(=O)O)C(O)C(O)C2O)cc1)N(Cc1ccc[n+]([O-])c1)C(=O)Cc1ccc(OC(F)(F)F)cc1` (stereo partly shown) [Compound 111], the Detection in bile result in data set [1] (setting [8]) is on record as “trace amount”. In data set [1] (setting [7]), the “Metabolic Forms … in which detected” value was “bile (traces)”.
Consider `C[C@H](c1nc2ncccc2c(=O)n1-c1ccc(O)cc1)N(Cc1cccnc1)C(=O)Cc1ccc(OC(F)(F)F)cc1` [Compound 105], for which, in data set [3], the “Metabolic Forms of Compound 101: Human” value is given as “detected; also recorded: minor”. Moreover, the Detection in bile result in data set [1] (setting [8]) is listed as “detected”. Further, in data set [1] (setting [7]), the “Metabolic Forms … in which detected” value is “bile”. In data set [4], the “Metabolic Forms of Compound 101: Monkey” value is reported as “detected; also recorded: minor”. Moreover, the “Metabolic Forms of Compound 101: Dog” value in data set [5] is “detected; also recorded: minor”. For the same compound, in data set [6], the “Metabolic Forms of Compound 101: Rat (in vitro)” value is reported as “approximately equal amounts; also recorded: major”.
As to `C[C@H](c1nc2ncccc2c(=O)n1-c1ccc(OC2OC(C(=O)O)C(O)C(O)C2O)cc1)N(Cc1cccnc1)C(=O)Cc1ccc(OC(F)(F)F)cc1` (stereo partly shown) [Compound 109], the Detection in bile entry in data set [1] (setting [8]) was “detected; also recorded: trace amounts”. Besides, the “Metabolic Forms … in which detected” value in data set [1] (setting [7]) is recorded as “bile”. Further, the “Metabolic Forms of Compound 101: Monkey” value in data set [4] was “detected; also recorded: minor”. In data set [5], the “Metabolic Forms of Compound 101: Dog” value is listed as “detected; also recorded: minor”.
